System: cGVHD symptom burden
Test: Example 1: Lee Symptom Scale (LSS) score
Type: in vivo, human
Description: Lee Symptom Scale (LSS) summary score measures the effect on patients' functioning and well-being. The Lee Symptom Scale is a 30-item scale developed to measure the symptoms of cGVHD and is described in Lec S J, Cook E F, Soiffer R, Antin J H. Development and validation of a scale to measure symptoms of chronic graft-versushost disease. Biol Blood Marrow Transplant 2002; 8:444-452.
All responses were assessed by the investigators.
Change From Baseline in Overall Score on Lee cGvHD Symptom Scale at Specified Time Points. Lee cGVHD symptom scale, a patient-reported symptom scale used to measure symptom burden and has 7 subscales (Skin, Eyes and Mouth, Breathing, Eating and Digestion, Muscles and Joints, Energy, and Mental and Emotional) with ratings as follows: 0—Not at all, 1—Slightly, 2—Moderately, 3—Quite a bit, 4—Extremely, with lower values representing better outcome. Score for each subscale was normalized to a score ranged from 0 to 100, where higher score=worse symptoms. An overall score was calculated as average of these 7 subscales. EOT visit was performed within 3 days after the participant's last dose of study drug. Baseline value was defined as valid and last non-missing value obtained within 28 days prior to participant receiving first study medication. […] Analysis was performed on mITT population. Here, ‘number analyzed’=participants with available data for each specified category. Here, ‘0’ in the number analyzed field signifies that none of the participants were available for the analysis at the specified time points.

CC(C)NC(=O)COc1cccc(-c2nc(Nc3ccc4[nH]ncc4c3)c3ccccc3n2)c1 [Belumosudil, 2-{3-[4-(1H-indazol-5-ylamino)-2-quinazolinyl]phenoxy}-N-(propan-2-yl) acetamide]
LSS improvement, nonresponder, n/N (Cohort 1 200 mg QD): 1/6 | LSS improvement, responder, n/N (Cohort 1 200 mg QD): 8/11 | Change From Baseline in Overall Score on Lee cGvHD Symptom Scale, Mean (Standard Deviation) (Cohort 1: 200 mg QD, Cycle 3, Day 1): −3.0 (8.5) score on a scale | Change From Baseline in Overall Score on Lee cGvHD Symptom Scale, Mean (Standard Deviation) (Cohort 1: 200 mg QD, Cycle 5, Day 1): −3.7 (11.0) score on a scale | Change From Baseline in Overall Score on Lee cGvHD Symptom Scale, Mean (Standard Deviation) (Cohort 1: 200 mg QD, Cycle 7, Day 1): −4.9 (8.4) score on a scale | Change From Baseline in Overall Score on Lee cGvHD Symptom Scale, Mean (Standard Deviation) (Cohort 1: 200 mg QD, Cycle 9, Day 1): −3.7 (10.7) score on a scale | Change From Baseline in Overall Score on Lee cGvHD Symptom Scale, Mean (Standard Deviation) (Cohort 1: 200 mg QD, Cycle 11, Day 1): −3.4 (11.5) score on a scale | Change From Baseline in Overall Score on Lee cGvHD Symptom Scale, Mean (Standard Deviation) (Cohort 1: 200 mg QD, Cycle 12, Day 1): −3.9 (8.1) score on a scale | Change From Baseline in Overall Score on Lee cGvHD Symptom Scale, Mean (Standard Deviation) (Cohort 1: 200 mg QD, Cycle 13, Day 1): −5.8 (14.7) score on a scale | Change From Baseline in Overall Score on Lee cGvHD Symptom Scale, Mean (Standard Deviation) (Cohort 1: 200 mg QD, Cycle 14, Day 1): −1.6 (17.1) score on a scale | Change From Baseline in Overall Score on Lee cGvHD Symptom Scale, Mean (Standard Deviation) (Cohort 1: 200 mg QD, Cycle 15, Day 1): −4.8 (15.8) score on a scale | Change From Baseline in Overall Score on Lee cGvHD Symptom Scale, Mean (Standard Deviation) (Cohort 1: 200 mg QD, Cycle 16, Day 1): −4.6 (16.1) score on a scale | Change From Baseline in Overall Score on Lee cGvHD Symptom Scale, Mean (Standard Deviation) (Cohort 1: 200 mg QD, Cycle 27, Day 1): −3.5 (25.3) score on a scale | Change From Baseline in Overall Score on Lee cGvHD Symptom Scale, Mean (Standard Deviation) (Cohort 1: 200 mg QD, Cycle 28, Day 1): 4.4 (13.4) score on a scale | Change From Baseline in Overall Score on Lee cGvHD Symptom Scale, Mean (Standard Deviation) (Cohort 1: 200 mg QD, Cycle 29, Day 1): −2.8 (23.7) score on a scale | Change From Baseline in Overall Score on Lee cGvHD Symptom Scale, Mean (Standard Deviation) (Cohort 1: 200 mg QD, Cycle 30, Day 1): 9.0 (7.5) score on a scale | Change From Baseline in Overall Score on Lee cGvHD Symptom Scale, Mean (Standard Deviation) (Cohort 1: 200 mg QD, Cycle 31, Day 1): −4.8 (27.9) score on a scale | Change From Baseline in Overall Score on Lee cGvHD Symptom Scale, Mean (Standard Deviation) (Cohort 1: 200 mg QD, Cycle 32, Day 1): 10.3 (6.9) score on a scale | Change From Baseline in Overall Score on Lee cGvHD Symptom Scale, Mean (Standard Deviation) (Cohort 1: 200 mg QD, Cycle 33, Day 1): 0.5 (20.7) score on a scale | Change From Baseline in Overall Score on Lee cGvHD Symptom Scale, Mean (Standard Deviation) (Cohort 1: 200 mg QD, Cycle 34, Day 1): 13.5 (3.6) score on a scale | Change From Baseline in Overall Score on Lee cGvHD Symptom Scale, Mean (Standard Deviation) (Cohort 1: 200 mg QD, Cycle 35, Day 1): −2.5 (23.3) score on a scale | Change From Baseline in Overall Score on Lee cGvHD Symptom Scale, Mean (Standard Deviation) (Cohort 1: 200 mg QD, Cycle 36, Day 1): 7.5 (6.4) score on a scale | Change From Baseline in Overall Score on Lee cGvHD Symptom Scale, Mean (Standard Deviation) (Cohort 1: 200 mg QD, Cycle 37, Day 1): −5.3 (29.0) score on a scale | Change From Baseline in Overall Score on Lee cGvHD Symptom Scale, Mean (Standard Deviation) (Cohort 1: 200 mg QD, Cycle 38, Day 1): 9.1 (5.2) score on a scale | Change From Baseline in Overall Score on Lee cGvHD Symptom Scale, Mean (Standard Deviation) (Cohort 1: 200 mg QD, Cycle 39, Day 1): −6.2 (25.9) score on a scale | Change From Baseline in Overall Score on Lee cGvHD Symptom Scale, Mean (Standard Deviation) (Cohort 1: 200 mg QD, Cycle 40, Day 1): 2.7 (—) score on a scale | Change From Baseline in Overall Score on Lee cGvHD Symptom Scale, Mean (Standard Deviation) (Cohort 1: 200 mg QD, Cycle 41, Day 1): −25.7 (—) score on a scale | Change From Baseline in Overall Score on Lee cGvHD Symptom Scale, Mean (Standard Deviation) (Cohort 1: 200 mg QD, Cycle 42, Day 1): 4.6 (—) score on a scale | Change From Baseline in Overall Score on Lee cGvHD Symptom Scale, Mean (Standard Deviation) (Cohort 1: 200 mg QD, Cycle 43, Day 1): −20.4 (—) score on a scale | Change From Baseline in Overall Score on Lee cGvHD Symptom Scale, Mean (Standard Deviation) (Cohort 1: 200 mg QD, Cycle 44, Day 1): 4.3 (—) score on a scale | Change From Baseline in Overall Score on Lee cGvHD Symptom Scale, Mean (Standard Deviation) (Cohort 1: 200 mg QD, Cycle 46, Day 1): 4.6 (—) score on a scale | Change From Baseline in Overall Score on Lee cGvHD Symptom Scale, Mean (Standard Deviation) (Cohort 1: 200 mg QD, Cycle 47, Day 1): −6.8 (—) score on a scale | Change From Baseline in Overall Score on Lee cGvHD Symptom Scale, Mean (Standard Deviation) (Cohort 1: 200 mg QD, Cycle 48, Day 1): 2.4 (—) score on a scale | Change From Baseline in Overall Score on Lee cGvHD Symptom Scale, Mean (Standard Deviation) (Cohort 1: 200 mg QD, Cycle 50, Day 1): 4.5 (—) score on a scale | Change From Baseline in Overall Score on Lee cGvHD Symptom Scale, Mean (Standard Deviation) (Cohort 1: 200 mg QD, Cycle 51, Day 1): −12.0 (—) score on a scale | Change From Baseline in Overall Score on Lee cGvHD Symptom Scale, Mean (Standard Deviation) (Cohort 1: 200 mg QD, Cycle 52, Day 1): 6.0 (—) score on a scale | Change From Baseline in Overall Score on Lee cGvHD Symptom Scale, Mean (Standard Deviation) (Cohort 1: 200 mg QD, Cycle 53, Day 1): −19.2 (—) score on a scale | Change From Baseline in Overall Score on Lee cGvHD Symptom Scale, Mean (Standard Deviation) (Cohort 1: 200 mg QD, Cycle 54, Day 1): 4.9 (—) score on a scale | Change From Baseline in Overall Score on Lee cGvHD Symptom Scale, Mean (Standard Deviation) (Cohort 1: 200 mg QD, Cycle 55, Day 1): −16.8 (—) score on a scale | Change From Baseline in Overall Score on Lee cGvHD Symptom Scale, Mean (Standard Deviation) (Cohort 1: 200 mg QD, Cycle 56, Day 1): 1.8 (—) score on a scale | Change From Baseline in Overall Score on Lee cGvHD Symptom Scale, Mean (Standard Deviation) (Cohort 1: 200 mg QD, Cycle 57, Day 1): −17.6 (—) score on a scale | Change From Baseline in Overall Score on Lee cGvHD Symptom Scale, Mean (Standard Deviation) (Cohort 1: 200 mg QD, Cycle 58, Day 1): 5.4 (—) score on a scale | Change From Baseline in Overall Score on Lee cGvHD Symptom Scale, Mean (Standard Deviation) (Cohort 1: 200 mg QD, Cycle 59, Day 1): −12.7 (—) score on a scale | Change From Baseline in Overall Score on Lee cGvHD Symptom Scale, Mean (Standard Deviation) (Cohort 1: 200 mg QD, Cycle 60, Day 1): 4.2 (—) score on a scale | Change From Baseline in Overall Score on Lee cGvHD Symptom Scale, Mean (Standard Deviation) (Cohort 1: 200 mg QD, Cycle 61, Day 1): −19.3 (—) score on a scale | Change From Baseline in Overall Score on Lee cGvHD Symptom Scale, Mean (Standard Deviation) (Cohort 1: 200 mg QD, Cycle 62, Day 1): 4.4 (—) score on a scale | Change From Baseline in Overall Score on Lee cGvHD Symptom Scale, Mean (Standard Deviation) (Cohort 1: 200 mg QD, Cycle 63, Day 1): −18.0 (—) score on a scale | Change From Baseline in Overall Score on Lee cGvHD Symptom Scale, Mean (Standard Deviation) (Cohort 1: 200 mg QD, Cycle 67, Day 1): −21.9 (—) score on a scale | Change From Baseline in Overall Score on Lee cGvHD Symptom Scale, Mean (Standard Deviation) (Cohort 1: 200 mg QD, EOT): −4.3 (11.7) score on a scale | LSS improvement, nonresponder, n/N (Cohort 2 200 mg BID): 4/5 | LSS improvement, responder, n/N (Cohort 2 200 mg BID): 3/11 | Change From Baseline in Overall Score on Lee cGvHD Symptom Scale, Mean (Standard Deviation) (Cohort 2: 200 mg BID, Cycle 3, Day 1): 0.5 (7.3) score on a scale | Change From Baseline in Overall Score on Lee cGvHD Symptom Scale, Mean (Standard Deviation) (Cohort 2: 200 mg BID, Cycle 5, Day 1): −3.7 (7.0) score on a scale | Change From Baseline in Overall Score on Lee cGvHD Symptom Scale, Mean (Standard Deviation) (Cohort 2: 200 mg BID, Cycle 7, Day 1): −2.2 (8.8) score on a scale | Change From Baseline in Overall Score on Lee cGvHD Symptom Scale, Mean (Standard Deviation) (Cohort 2: 200 mg BID, Cycle 8, Day 1): −7.1 (10.1) score on a scale

Source: US20260027116A1, “Methods of Treating Chronic Graft-Versus-Host Disease Following Allogeneic Hematopoietic Stem Cell Transplantation” (Kadmon Corporation, LLC, priority 2022, published 2026)
